For data set [1], the target named is T1, Cytochrome P450 2C8 (Homo sapiens, UniProt P10632).
T1 sequence (P10632 whole entry): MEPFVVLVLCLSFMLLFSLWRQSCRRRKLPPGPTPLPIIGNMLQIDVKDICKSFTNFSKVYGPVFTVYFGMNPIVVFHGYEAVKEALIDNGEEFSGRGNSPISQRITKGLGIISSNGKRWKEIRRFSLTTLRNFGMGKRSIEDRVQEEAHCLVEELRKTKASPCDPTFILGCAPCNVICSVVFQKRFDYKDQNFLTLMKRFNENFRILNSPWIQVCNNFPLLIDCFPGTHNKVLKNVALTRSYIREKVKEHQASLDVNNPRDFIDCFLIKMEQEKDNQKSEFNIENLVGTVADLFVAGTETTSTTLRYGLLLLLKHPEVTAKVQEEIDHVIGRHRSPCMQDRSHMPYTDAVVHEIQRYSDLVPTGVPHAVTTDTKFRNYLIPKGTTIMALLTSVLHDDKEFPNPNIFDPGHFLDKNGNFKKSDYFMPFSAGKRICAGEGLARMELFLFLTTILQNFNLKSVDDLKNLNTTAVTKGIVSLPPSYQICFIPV
Briefly: Linear mixed inhibition of CYP2C8 in human liver microsomes assessed as paclitaxel 6-hydroxylation after 20 mins by LC-MS/MS analysis. Type of data set: ADME.

A short description of data set [2]: Drug metabolism in human liver microsomes assessed as CYP3A5*1/*1-compound formation after 15 mins by LC-MS/MS analysis in presence of UDPGA. Type of data set: ADME. The conditions noted are these: 0.25 h.
Data set [3] concerns the target T2, UDP-glucuronosyltransferase 1A3 (Homo sapiens, UniProt P35503).
T2 sequence (P35503 whole entry): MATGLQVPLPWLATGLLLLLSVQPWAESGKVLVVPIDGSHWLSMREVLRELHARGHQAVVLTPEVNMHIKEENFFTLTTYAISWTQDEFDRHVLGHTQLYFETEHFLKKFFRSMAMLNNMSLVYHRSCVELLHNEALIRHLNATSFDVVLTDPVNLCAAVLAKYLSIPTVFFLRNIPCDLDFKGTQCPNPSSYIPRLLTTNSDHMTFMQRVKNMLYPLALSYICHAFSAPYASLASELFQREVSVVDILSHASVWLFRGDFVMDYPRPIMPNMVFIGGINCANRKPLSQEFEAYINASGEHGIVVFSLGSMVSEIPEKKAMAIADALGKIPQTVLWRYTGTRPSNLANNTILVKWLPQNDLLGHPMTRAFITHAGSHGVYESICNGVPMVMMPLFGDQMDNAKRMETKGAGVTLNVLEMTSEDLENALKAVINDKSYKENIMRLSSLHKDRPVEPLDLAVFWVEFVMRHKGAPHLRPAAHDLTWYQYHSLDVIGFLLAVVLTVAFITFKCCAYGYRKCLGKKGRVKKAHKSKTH
Briefly: Drug metabolism assessed as human recombinant UGT1A3-mediated compound formation treated with AMG 853 at 10 uM after 30 mins by LC-MS/MS analysis. Type of data set: ADME. The conditions noted are these: recombinant enzyme, 0.5 h.

Data set [4] concerns the target UDP-glucuronosyltransferase 1A8 (Homo sapiens, UniProt Q9HAW9). Briefly: Drug metabolism assessed as human recombinant UGT1A8-mediated (2S,3S,4S,5R,6S)-6-(2-(4-(4-(tert-butylcarbamoyl)-2-(2-chloro-4-cyclopropylphenylsulfonamido)phenoxy)-5-chloro-2-fluorophenyl)acetoxy)-3,4,5-trihydroxytetrahydro-2H-pyran-2-carboxylic acid formation at 10 uM after 30 mins by LC-MS/MS analysis. Type of data set: ADME. The conditions noted are these: recombinant enzyme, 0.5 h.

For data set [5], the target named is UDP-glucuronosyltransferase 1A7 (Homo sapiens, UniProt Q9HAW7). Briefly: Drug metabolism assessed as human recombinant UGT1A7-mediated (2S,3S,4S,5R,6S)-6-(2-(4-(4-(tert-butylcarbamoyl)-2-(2-chloro-4-cyclopropylphenylsulfonamido)phenoxy)-5-chloro-2-fluorophenyl)acetoxy)-3,4,5-trihydroxytetrahydro-2H-pyran-2-carboxylic acid formation at 10 uM after 30 mins by LC-MS/MS analysis. Type of data set: ADME. The conditions noted are these: recombinant enzyme, 0.5 h.

Data set [6] has as its target T1, Cytochrome P450 2C8. Briefly: Inhibition of CYP2C8 in human liver microsomes assessed as paclitaxel 6-hydroxylation after 5 to 30 mins by LC-MS/MS analysis. Type of data set: ADME.
In data set [7] the target is CYP3A4 (Homo sapiens, UniProt P08684). Description: Induction of CYP3A4 in human hepatocytes using midazolam as substrate at 0.3 to 30 uM treated every 24 hrs for 2 days measured on day 5 by LC-MS/MS analysis relative to control.
Data set [8] deals with CYP1A2 (Homo sapiens, UniProt P05177). Description: Induction of CYP1A2 in human hepatocytes using phenacetin as substrate at 0.3 to 30 uM treated every 24 hrs for 2 days measured on day 5 by LC-MS/MS analysis relative to control. The format is ADME, cell-based, Hepatocyte. The conditions noted are these: probe phenacetin, read-out: FC.
The test system of data set [9] is CYP2C9. Briefly: Upregulation of CYP2C9 mRNA expression in human hepatocytes at 0.3 to 30 uM treated every 24 hrs for 2 days measured on day 5 relative to control. The conditions noted are these: read-out: FC. The format is ADME, cell-based, Hepatocyte.
The test system of data set [10] is CYP3A4. Briefly: Upregulation of CYP3A4 mRNA expression in human hepatocytes at 0.3 to 30 uM treated every 24 hrs for 2 days measured on day 5 relative to control. The format is ADME, cell-based, Hepatocyte. The conditions noted are these: read-out: FC.
The nature of data set [11]: AUC (0 to infinity) in healthy human at 50 mg, po. The format is ADME, organism-based. Details: dose 50 mg, route oral, time infinity. The conditions noted are these: plasma.
Data set [12] can be described thus: Drug metabolism in human liver microsomes assessed as CYP3A5*1/*1-mediated (2S,3S,4S,5R,6S)-6-(2-(4-(4-(tert-butylcarbamoyl)-2-(2-chloro-4-cyclopropylphenylsulfonamido)phenoxy)-5-chloro-2-fluorophenyl)acetoxy)-3,4,5-trihydroxytetrahydro-2H-pyran-2-carboxylic acid formation after 15 mins by LC-MS/MS analysis in presence of UDPGA. The format is ADME. The conditions noted are these: 0.25 h.

Data set [13] concerns Liver microsome. Description: Drug metabolism in human liver microsomes assessed as 2-(4-(4-(tert-butylcarbamoyl)-2-(2-chloro-4-(1-hydroxycyclopropyl)phenylsulfonamido)phenoxy)-5-chloro-2-fluorophenyl)acetic acid formation at 2 uM after 60 mins by LC-MS/MS analysis in presence of montelukast. Type of data set: ADME. The conditions noted are these: 1 h.
Data set [14] deals with UDP-glucuronosyltransferase 1A10 (Homo sapiens, UniProt Q9HAW8). Briefly: Drug metabolism assessed as human recombinant UGT1A10-mediated (2S,3S,4S,5R,6S)-6-(2-(4-(4-(tert-butylcarbamoyl)-2-(2-chloro-4-cyclopropylphenylsulfonamido)phenoxy)-5-chloro-2-fluorophenyl)acetoxy)-3,4,5-trihydroxytetrahydro-2H-pyran-2-carboxylic acid formation at 10 uM after 30 mins by LC-MS/MS analysis. The conditions noted are these: recombinant enzyme, 0.5 h. Type of data set: ADME.

In data set [15] the target is UDP-glucuronosyltransferase 2B4 (Homo sapiens, UniProt P06133). Description: Drug metabolism assessed as human recombinant UGT2B4-mediated (2S,3S,4S,5R,6S)-6-(2-(4-(4-(tert-butylcarbamoyl)-2-(2-chloro-4-cyclopropylphenylsulfonamido)phenoxy)-5-chloro-2-fluorophenyl)acetoxy)-3,4,5-trihydroxytetrahydro-2H-pyran-2-carboxylic acid formation at 10 uM after 30 mins by LC-MS/MS analysis. Type of data set: ADME. The conditions noted are these: recombinant enzyme, 0.5 h.

The target of data set [16] is UDP-glucuronosyltransferase 2B15 (Homo sapiens, UniProt P54855). Description: Drug metabolism assessed as human recombinant UGT2B15-mediated (2S,3S,4S,5R,6S)-6-(2-(4-(4-(tert-butylcarbamoyl)-2-(2-chloro-4-cyclopropylphenylsulfonamido)phenoxy)-5-chloro-2-fluorophenyl)acetoxy)-3,4,5-trihydroxytetrahydro-2H-pyran-2-carboxylic acid formation at 10 uM after 30 mins by LC-MS/MS analysis. Type of data set: ADME. The conditions noted are these: recombinant enzyme, 0.5 h.

Each structure is given as a SMILES string.

UDP-glucuronosyltransferase 2B15, sequence (P54855 whole entry): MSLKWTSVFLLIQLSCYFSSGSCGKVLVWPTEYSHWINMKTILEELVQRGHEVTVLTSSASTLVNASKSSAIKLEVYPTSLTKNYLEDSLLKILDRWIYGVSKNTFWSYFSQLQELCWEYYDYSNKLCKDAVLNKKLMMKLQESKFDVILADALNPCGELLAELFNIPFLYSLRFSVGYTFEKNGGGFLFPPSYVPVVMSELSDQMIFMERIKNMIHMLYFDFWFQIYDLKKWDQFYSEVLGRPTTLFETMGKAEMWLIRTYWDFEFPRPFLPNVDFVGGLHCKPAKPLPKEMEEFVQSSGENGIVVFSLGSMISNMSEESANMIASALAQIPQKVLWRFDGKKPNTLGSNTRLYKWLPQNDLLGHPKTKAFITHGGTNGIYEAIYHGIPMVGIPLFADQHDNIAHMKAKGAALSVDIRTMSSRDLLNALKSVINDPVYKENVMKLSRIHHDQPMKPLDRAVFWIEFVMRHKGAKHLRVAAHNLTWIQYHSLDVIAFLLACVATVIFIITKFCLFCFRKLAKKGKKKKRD
CYP1A2, sequence (P05177 whole entry): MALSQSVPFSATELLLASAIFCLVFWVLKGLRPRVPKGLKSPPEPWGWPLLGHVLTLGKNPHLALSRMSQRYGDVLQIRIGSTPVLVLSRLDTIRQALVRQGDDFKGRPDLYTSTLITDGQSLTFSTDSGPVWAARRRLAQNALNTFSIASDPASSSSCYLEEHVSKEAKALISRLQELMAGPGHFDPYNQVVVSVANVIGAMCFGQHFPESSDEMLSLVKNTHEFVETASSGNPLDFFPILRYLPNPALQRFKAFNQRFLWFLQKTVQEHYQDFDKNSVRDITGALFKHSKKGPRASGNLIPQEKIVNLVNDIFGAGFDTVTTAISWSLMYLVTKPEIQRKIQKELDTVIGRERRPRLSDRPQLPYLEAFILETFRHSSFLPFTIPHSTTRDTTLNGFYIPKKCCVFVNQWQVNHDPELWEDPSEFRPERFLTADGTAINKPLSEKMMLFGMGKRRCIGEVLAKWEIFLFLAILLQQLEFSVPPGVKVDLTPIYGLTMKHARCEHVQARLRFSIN
CYP3A4 (Homo sapiens, UniProt P08684), sequence (P08684 whole entry): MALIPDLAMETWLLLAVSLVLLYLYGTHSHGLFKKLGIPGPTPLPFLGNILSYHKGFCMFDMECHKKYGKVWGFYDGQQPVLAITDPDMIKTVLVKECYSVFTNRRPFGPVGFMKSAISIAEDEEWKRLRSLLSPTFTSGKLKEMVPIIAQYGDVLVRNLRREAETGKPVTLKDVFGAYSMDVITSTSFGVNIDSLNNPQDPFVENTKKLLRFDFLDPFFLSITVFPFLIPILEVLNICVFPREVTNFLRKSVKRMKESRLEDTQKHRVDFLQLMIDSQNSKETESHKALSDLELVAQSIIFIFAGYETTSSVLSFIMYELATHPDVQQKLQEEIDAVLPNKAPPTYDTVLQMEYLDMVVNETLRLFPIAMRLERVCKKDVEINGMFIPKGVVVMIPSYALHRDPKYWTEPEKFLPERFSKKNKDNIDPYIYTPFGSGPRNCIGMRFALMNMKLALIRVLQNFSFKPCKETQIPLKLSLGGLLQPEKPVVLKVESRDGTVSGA
UDP-glucuronosyltransferase 1A7, sequence (Q9HAW7 whole entry): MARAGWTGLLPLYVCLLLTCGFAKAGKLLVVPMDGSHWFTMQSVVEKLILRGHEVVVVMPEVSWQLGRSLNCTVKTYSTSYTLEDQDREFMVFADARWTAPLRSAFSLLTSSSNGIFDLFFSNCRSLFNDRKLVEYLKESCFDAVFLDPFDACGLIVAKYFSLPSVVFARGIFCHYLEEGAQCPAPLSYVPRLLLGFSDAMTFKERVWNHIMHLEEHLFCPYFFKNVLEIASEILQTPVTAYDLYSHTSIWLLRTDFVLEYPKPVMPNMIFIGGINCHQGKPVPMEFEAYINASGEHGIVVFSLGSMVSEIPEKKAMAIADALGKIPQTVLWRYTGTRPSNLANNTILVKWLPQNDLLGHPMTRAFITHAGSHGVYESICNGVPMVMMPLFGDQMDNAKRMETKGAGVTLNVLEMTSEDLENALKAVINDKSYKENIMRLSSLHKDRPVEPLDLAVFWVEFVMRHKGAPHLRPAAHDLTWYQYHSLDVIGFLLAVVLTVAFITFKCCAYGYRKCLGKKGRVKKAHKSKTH
UDP-glucuronosyltransferase 1A8, sequence (Q9HAW9 whole entry): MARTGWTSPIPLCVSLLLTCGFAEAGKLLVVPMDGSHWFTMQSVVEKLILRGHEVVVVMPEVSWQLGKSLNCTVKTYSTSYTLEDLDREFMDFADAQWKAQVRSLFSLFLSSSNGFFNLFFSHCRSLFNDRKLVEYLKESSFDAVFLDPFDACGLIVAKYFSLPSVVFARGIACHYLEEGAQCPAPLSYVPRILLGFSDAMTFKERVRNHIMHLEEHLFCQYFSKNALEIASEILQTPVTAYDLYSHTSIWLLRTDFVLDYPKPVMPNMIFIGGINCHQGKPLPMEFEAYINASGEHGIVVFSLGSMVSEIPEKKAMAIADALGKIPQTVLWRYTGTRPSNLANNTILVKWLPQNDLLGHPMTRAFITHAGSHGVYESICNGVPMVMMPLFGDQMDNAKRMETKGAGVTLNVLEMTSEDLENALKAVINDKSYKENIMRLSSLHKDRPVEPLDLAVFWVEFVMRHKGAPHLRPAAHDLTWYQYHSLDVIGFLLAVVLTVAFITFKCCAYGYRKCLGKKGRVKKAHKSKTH
UDP-glucuronosyltransferase 2B4, sequence (P06133 whole entry): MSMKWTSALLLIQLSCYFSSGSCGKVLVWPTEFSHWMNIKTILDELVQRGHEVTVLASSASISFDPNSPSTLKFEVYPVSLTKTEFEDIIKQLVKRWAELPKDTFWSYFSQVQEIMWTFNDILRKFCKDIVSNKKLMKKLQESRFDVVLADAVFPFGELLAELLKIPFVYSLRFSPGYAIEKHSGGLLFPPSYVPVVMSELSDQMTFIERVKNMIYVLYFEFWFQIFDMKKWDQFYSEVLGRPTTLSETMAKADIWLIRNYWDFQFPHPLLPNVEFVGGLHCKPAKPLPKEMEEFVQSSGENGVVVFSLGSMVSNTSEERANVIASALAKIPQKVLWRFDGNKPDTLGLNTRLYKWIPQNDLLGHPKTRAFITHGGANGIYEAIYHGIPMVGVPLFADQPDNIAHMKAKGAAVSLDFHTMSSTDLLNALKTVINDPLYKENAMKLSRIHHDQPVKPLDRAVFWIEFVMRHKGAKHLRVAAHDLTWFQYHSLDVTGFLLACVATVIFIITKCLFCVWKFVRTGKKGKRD
UDP-glucuronosyltransferase 1A10, sequence (Q9HAW8 whole entry): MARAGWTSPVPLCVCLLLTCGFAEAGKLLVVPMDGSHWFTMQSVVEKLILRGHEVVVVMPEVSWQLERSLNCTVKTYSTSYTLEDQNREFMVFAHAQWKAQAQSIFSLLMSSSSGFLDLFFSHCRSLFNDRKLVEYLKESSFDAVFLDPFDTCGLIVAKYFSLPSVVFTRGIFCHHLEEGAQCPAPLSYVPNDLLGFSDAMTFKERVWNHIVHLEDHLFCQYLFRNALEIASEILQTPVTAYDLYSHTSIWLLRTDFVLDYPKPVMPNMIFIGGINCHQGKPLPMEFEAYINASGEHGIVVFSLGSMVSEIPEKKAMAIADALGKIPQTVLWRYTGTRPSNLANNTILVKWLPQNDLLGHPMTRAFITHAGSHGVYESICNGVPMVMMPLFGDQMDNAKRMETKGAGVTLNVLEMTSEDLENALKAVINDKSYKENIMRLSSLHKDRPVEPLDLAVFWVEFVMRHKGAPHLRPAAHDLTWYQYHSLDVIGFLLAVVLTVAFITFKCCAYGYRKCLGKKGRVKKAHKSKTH

Turning to `CC(C)(C)NC(=O)c1ccc(Oc2cc(F)c(CC(=O)O[C@@H]3O[C@H](C(=O)O)[C@@H](O)[C@H](O)[C@H]3O)cc2Cl)c(NS(=O)(=O)c2ccc(C3CC3)cc2Cl)c1`, the inhibitory constant (Ki) in [1] was found to be 2.7 µM. For the same molecule, the Drug metabolism entry in [2] and in data set [3] was “metabolite_detected” throughout.

Regarding `CC(C)(C)NC(=O)c1ccc(Oc2cc(F)c(CC(=O)O)cc2Cl)c(NS(=O)(=O)c2ccc(C3CC3)cc2Cl)c1` [VIDUPIPRANT], the Drug metabolism result in [4] was “metabolite_detected”; in [5], “metabolite_not_detected”; in data set [12] it was “metabolite_detected”; in [13], “metabolite_not_detected”; in data set [14], “metabolite_not_detected”; in [15] it was “metabolite_not_detected”. Further, the Drug metabolism result in data set [16] is on record as “metabolite_not_detected”. In addition, the concentration for half-maximal inhibition (IC50) in data set [6] came to 5.4 µM. In addition, the fold induction at 48 h, 30 µM in data set [7] came to 1.4. Besides, the fold induction at 48 h, up to 30 µM worked out at 1.4 in data set [8], 1.7 in data set [9] and 1.7 in data set [10]. Further, the AUC(0-inf) in data set [11] came to 671 ng·h/mL.

Source of the values: ChEMBL document CHEMBL3526017, “Predicting the drug interaction potential of AMG 853, a dual antagonist of the D-prostanoid and chemoattractant receptor-homologous molecule expressed on T helper 2 cells receptors” (Drug Metab Dispos, 2012).
